Read-outs that look alike come from different tables or passages of the source.
Legend:
[1] = tested on: Phakopsora pachyrhizi (F129L); experiment: Protective control of soybean rust on soybeans (PHAKPA P6); assay type: in vivo; settings: for % PHAKPA (F129L) Disease level P6 at 4 ppm: protective P6, 4 ppm; for % PHAKPA (F129L) Disease level P6 at 4 ppm / % PHAKPA (F129L) Disease level P6 at 16 ppm: soybean rust F129L; for % PHAKPA (F129L) Disease level P6 at 16 ppm: protective P6, 16 ppm
[2] = tested on: Pyricularia oryzae; experiment: microbe, parasite or virus in culture; assay type: cell-based; settings: for activity at 0.016 ppm: Pyricularia oryzae, 168 h, read-out: Fungal growth (%) PYRIOR
[3] = tested on: Leptosphaeria nodorum; experiment: Micro titer plate test against Leptosphaeria nodorum causing wheat leaf spots (LEPTNO); assay type: cell-based; settings: for activity at 0.063 ppm: Parastagonospora nodorum, 168 h, read-out: Fungal growth (%) LEPTNO
[4] = tested on: Septoria tritici; experiment: microbe, parasite or virus in culture; assay type: cell-based; settings: for activity at 0.25 ppm: Zymoseptoria tritici, 168 h, read-out: Fungal growth (%) SEPTTR
[5] = tested on: Microdochium nivale; experiment: Micro titer plate test against Microdochium nivale causing snow mould (MONGNI); assay type: cell-based; settings: for activity at 0.016 ppm: Microdochium nivale, 168 h, read-out: Fungal growth (%) MONGNI
[6] = tested on: Alternaria solani (wt); experiment: microbe, parasite or virus in culture; assay type: cell-based; settings: 0.016 ppm; for activity at 0.016 ppm: Alternaria solani, 168 h, read-out: Fungal growth (%) ALTESO wt
[7] = tested on: Alternaria solani (F129L); experiment: Micro titer plate test against Alternaria solani causing early blight (ALTESO F129L); assay type: cell-based
[8] = tested on: Cercospora sojina; experiment: microbe, parasite or virus in culture; assay type: cell-based; settings: for activity at 4 ppm: Cercospora sojina, 168 h, read-out: Fungal growth (%) CERCSO
[9] = tested on: Phakopsora pachyrhizi (F129L); experiment: Protective control of soybean rust on soybeans (PHAKPA P2); assay type: in vivo; settings: for % PHAKPA (F129L) Disease level P2 at 4 ppm: protective P2, 4 ppm; for % PHAKPA (F129L) Disease level P2 at 4 ppm / % PHAKPA (F129L) Disease level P2 at 16 ppm: soybean rust F129L; for % PHAKPA (F129L) Disease level P2 at 16 ppm: protective P2, 16 ppm
[10] = tested on: Pyrenophora teres (wt); experiment: Micro titer plate test against Pyrenophora teres causing net blotch on barley (PYRNTE wt); assay type: cell-based; settings: 168 h, read-out: Fungal growth (%) PYRNTE wt
[11] = tested on: Colletotrichum orbiculare; experiment: Micro titer plate test against Colletotrichum orbiculare causing anthracnose (COLLLA); assay type: cell-based; settings: for activity at 0.063 ppm: Colletotrichum orbiculare, 168 h, read-out: Fungal growth (%) COLLLA
[12] = P2 protective, % diseased leaf area
[13] = Alternaria solani, 168 h, 0.016 ppm, read-out: Fungal growth (%) ALTESO F129L

In the case of `CNC(=O)/C(=N/OC)c1cccc(C)c1CO/N=C(\C)c1cccc(C(F)(F)F)c1` [Ex. 8], the “% PHAKPA (F129L) Disease level P6 at 4 ppm” value [1] was 5%, the “% PHAKPA (F129L) Disease level P6 at 16 ppm” value [1] was 0% and the activity at 0.016 ppm [2] was 13%. For the same compound, the “Fungal growth (%) LEPTNO” value [3] was 70%, the activity at 0.063 ppm [3] was 70% and the activity at 0.25 ppm [4] was 57%. For the same compound, the “Fungal growth (%) MONGNI” value [5] was 54%, the activity at 0.016 ppm [5] was 54% and the activity at 0.016 ppm [6] was 56%. For the same compound, the activity at 0.016 ppm ([7]; Alternaria solani, 168 h, read-out: Fungal growth (%) ALTESO F129L, 0.016 ppm) was 55%, the “Fungal growth (%) CERCSO” value ([8]; 4 ppm) was 27% and the activity at 4 ppm [8] was 27%. The “PHAKPA (F129L) Disease level (%) P2 at 1 ppm” value ([9]; P2 protective, 1 ppm, % diseased leaf area) was 6%, the “PHAKPA (F129L) Disease level (%) P2 at 4 ppm” value [9, 12] was 1% and the “% PHAKPA (F129L) Disease level P2 at 4 ppm” value [9] was 4%. For the same compound, the “% PHAKPA (F129L) Disease level P2 at 16 ppm” value [9] was 0%.

For `CO/N=C(/C(=O)OC)c1cccc(C)c1CO/N=C(\C)c1cccc(C(F)(F)F)c1` [Ex. 9], the “PHAKPA (F129L) Disease level (%) P6 at 4 ppm” value ([1]; P6 protective, 4 ppm, % diseased leaf area) was 41%, the “% PHAKPA (F129L) Disease level P6 at 4 ppm” value [1] was 41% and the “% PHAKPA (F129L) Disease level P6 at 16 ppm” value [1] was 4%. For the same compound, the activity at 0.016 ppm [2] was 38%, the activity at 0.025 ppm [10] was 44% and the activity at 0.063 ppm [3] was 67%. For the same compound, the activity at 0.016 ppm [6] was 73%, the activity at 4 ppm ([8]; 4 ppm) was 11% and the “PHAKPA (F129L) Disease level (%) P2 at 16 ppm” value ([9]; P2 protective, 16 ppm, % diseased leaf area) was 23%. The “% PHAKPA (F129L) Disease level P2 at 4 ppm” value [9] was 35% and the “% PHAKPA (F129L) Disease level P2 at 16 ppm” value [9] was 23%.

With `CNC(=O)/C(=N/OC)c1cccc(C)c1CO/N=C(\C)c1cccc(C)c1` [Ex. 77] the “Fungal growth (%) COLLLA” value ([11]; 0.063 ppm) was 39%, the “PHAKPA (F129L) Disease level (%) P6 at 16 ppm” value ([1]; P6 protective, 16 ppm, % diseased leaf area) was 20% and the “% PHAKPA (F129L) Disease level P6 at 4 ppm” value [1] was 40%. The “% PHAKPA (F129L) Disease level P6 at 16 ppm” value [1] was 3%, the “Fungal growth (%) PYRIOR” value ([2]; 0.016 ppm) was 20% and the “Fungal growth (%) SEPTTR” value ([4]; 0.25 ppm) was 49%. For the same compound, the “Fungal growth (%) ALTESO wt” value [6] was 73%, the “Fungal growth (%) ALTESO F129L” value ([7]; 0.016 ppm) was 69% and the “PHAKPA (F129L) Disease level (%) P2 at 4 ppm” value [9, 12] was 37%. The “% PHAKPA (F129L) Disease level P2 at 4 ppm” value [9] was 67% and the “% PHAKPA (F129L) Disease level P2 at 16 ppm” value [9] was 4%.

Compound `Cc1cccc(-n2nnn(C)c2=O)c1COc1ccn(-c2ccc(Cl)cc2)n1` [drawing 928] has an activity at 0.016 ppm [2] of 87%, an activity at 0.016 ppm [5] of 97% and an activity at 0.016 ppm [6] of 98%. The activity at 0.016 ppm [7, 13] was 100%.

With `CO/N=C(/C(=O)OC)c1cccc(C)c1CO/N=C(\C)c1cccc(OC(F)(F)F)c1` [drawing 934] the activity at 0.016 ppm [2] was 100%, the activity at 0.025 ppm [10] was 84% and the activity at 0.016 ppm [6] was 94%. The activity at 4 ppm ([8]; 4 ppm) was 33%.

Compound `CO/N=C(/C(=O)OC)c1cccc(C)c1CO/N=C(\C)c1cccc(OC(F)(F)F)c1` [drawing 938] has an activity at 0.063 ppm [11] of 77% and an activity at 4 ppm ([7]; Alternaria solani, 168 h, 4 ppm, read-out: Fungal growth (%) ALTESO F129L) of 87%.

`CO/N=C(/C(=O)OC)c1cccc(C)c1CO/N=C(\OC)c1cccc(C(F)(F)F)c1` [drawing 942] gave an activity at 0.016 ppm [2] of 58%, an activity at 0.063 ppm [3] of 100% and an activity at 4 ppm ([8]; 4 ppm) of 56%.

With `CNC(=O)/C(=N/OC)c1cccc(C)c1CO/N=C(\SC)c1cccc(C(F)(F)F)c1` [drawing 944] the activity at 0.016 ppm [2] was 49%, the activity at 0.063 ppm [3] was 93% and the activity at 0.016 ppm [5] was 84%. For the same compound, the activity at 0.016 ppm [7, 13] was 85% and the activity at 4 ppm ([8]; 4 ppm) was 66%.

Compound `CNC(=O)/C(=N/OC)c1cccc(C)c1CO/N=C(\OC)c1cccc(C(F)(F)F)c1` [drawing 946] has an activity at 0.016 ppm [2] of 39%, an activity at 0.063 ppm [3] of 95% and an activity at 0.25 ppm [4] of 77%. It also gave an activity at 0.016 ppm [6] of 100% and an activity at 0.016 ppm [7, 13] of 87%.

`CNC(=O)/C(=N/OC)c1cccc(C)c1CO/N=C(\OC)c1cccc(C(F)(F)F)c1` [drawing 948] gave an activity at 0.016 ppm [5] of 80% and an activity at 4 ppm ([8]; 4 ppm) of 60%.

Work on `CO/N=C(/C(=O)OC)c1cccc(C)c1CO/N=C(\SC)c1cccc(C)c1` [drawing 953] yielded an activity at 0.25 ppm [10] of 59%, an activity at 0.063 ppm [3] of 85% and an activity at 0.016 ppm [6] of 67%. For the same compound, the activity at 0.016 ppm [7, 13] was 66% and the activity at 4 ppm ([8]; 4 ppm) was 71%.

Work on `CO/N=C(/C(=O)OC)c1cccc(C)c1CO/N=C(\OC)c1cccc(C)c1` [drawing 954] yielded an activity at 0.25 ppm [10] of 53%, an activity at 0.063 ppm [3] of 65% and an activity at 0.016 ppm [6] of 93%. It also gave an activity at 0.016 ppm [7, 13] of 81% and an activity at 4 ppm ([8]; 4 ppm) of 67%.

Work on `CO/N=C(/C(=O)OC)c1cccc(C)c1CO/N=C(/c1cccc(C)c1)C1CC1` [drawing 955] yielded an activity at 0.25 ppm [10] of 78%, an activity at 0.063 ppm [3] of 100% and an activity at 0.016 ppm [6] of 100%. The activity at 0.016 ppm [7, 13] was 87% and the activity at 4 ppm ([8]; 4 ppm) was 87%.

`CNC(=O)/C(=N/OC)c1cccc(C)c1CO/N=C(\OC)c1cccc(C)c1` [drawing 957] showed an activity at 0.063 ppm [11] of 81%, an activity at 0.016 ppm [2] of 80% and an activity at 0.25 ppm [4] of 100%. For the same compound, the activity at 0.016 ppm [6] was 93% and the activity at 0.016 ppm [7, 13] was 95%.
